Key:
[1] = system: human mitochondria (Heb7A); test: Mitochondrial membrane potential assay with sensor device 1000, substrates and inhibitors added (FIG. 12); format: cell-based; conditions: isolated Heb7A mitochondria in respiration buffer, about 10 μM TPP+, sequential additions
Procedure: The voltmeter was linked to the computer via a GPIB interface (National Instrument, GPIB-USB-HS) for data communication. The voltage signal from the voltmeter was acquired using Labview software, so that simultaneous monitoring of the mitochondrial membrane potential could be achieved.
The evaluation of the mitochondrial membrane potential was performed with human mitochondria (Heb7A) in respiration buffer (225 mM mannitol, 75 mM sucrose, 10 mM KCl, 10 mM Tris-HCl, 5 mM KH2PO4, pH 7.2). The measurements were repeated 4 times with freshly prepared mitochondria to confirm the performance and the reproducibility of the sensor. […] 25 ng of isolated mitochondria in 85 μL was used for the test resulting in a final concentration of 0.29 ng/μL.
FIG. 11 illustrates an image of a complete sensor device 1000 showing the reference electrode 1015 and working electrode 1016 with arrows. The sensing chamber was filled with an initial volume of 71 μL respiration buffer. Once the plot baselined to zero, a 100 μM TPP^+Cl^− solution was added to provide a working concentration. The working concentration of TPP^+ was kept at about 10 μM to prevent inhibition of respiration. After stabilization, isolated mitochondria (5 ng μL/1) were added to the sensing chamber 1011.

[2] = value given for Equation 3; cited from earlier work
[3] = compared with DDA+; cited from earlier work

SMILES | change in the magnitude of ΔΨm after addition [1] | partition coefficient, binding to the external face of the inner membrane (Ko) [2] [µL/mg] | diffusion coefficient through mitochondrial membranes relative to other cations such as DDA+ [3] [times faster]
O=C(O)CC(=O)O [malonate] | slow decrease in the magnitude of ΔΨm |  | 
O=C(O)CCC(=O)O [succinate] | increase the magnitude of ΔΨm |  | 
c1ccc([P+](c2ccccc2)(c2ccccc2)c2ccccc2)cc1 [TPP^+, tetraphenylphosphonium] |  | 14.3 | 15
C=C(C)[C@H]1Cc2c(ccc3c2O[C@@H]2COc4cc(OC)c(OC)cc4[C@@H]2C3=O)O1 [Rot] | slow decline in the magnitude of ΔΨm |  | 

— patent US8961759B2, “Device and method for mitochondrial membrane potential assessment” (priority 2011, dated 2015)
